The results in this text go back to patent publication EP4603105A1, “PHARMACEUTICAL COMPOSITION CONTAINING CYCLIC COMPOUND HAVING SELECTIVE KRAS INHIBITORY EFFECT AGAINST HRAS AND NRAS” (CHUGAI SEIYAKU KABUSHIKI KAISHA, priority 2022, dated 2024).

One experiment concerns the target HRAS wild-type protein (Homo sapiens, UniProt P01112). Put plainly: Binding to HRAS by surface plasmon resonance (SPR), KD and KD ratio to KRAS. To be noted: ratio of KD for HRAS wild-type protein to KD for KRAS. In outline: (§1)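 Recombinant RAS proteins bearing a biotinylated Avi tag and loaded with GDP served as the captured ligand, recaptured fresh every cycle. Binding responses were referenced to an uncoated surface and a buffer-only blank cycle. Dissociation constants were obtained by 1:1 model fitting at 30°C.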
Background: In SPR one partner is held on a chip, and binding of the other changes the refractive index at the surface.

Experiment [1] has as its target GDP-bound NRAS wild-type protein (Homo sapiens, UniProt P01111). In words: Binding to NRAS by surface plasmon resonance (SPR), KD and KD ratio to KRAS. To be noted: ratio of KD for GDP-bound NRAS wild-type protein to KD for KRAS. In a few lines: as §1
Experiment [2] deals with GDP-bound KRAS wild-type protein (Homo sapiens, UniProt P01116). In words: Binding to KRAS by surface plasmon resonance (SPR), dissociation constant KD. To be noted: Single Cycle Kinetics. In a few lines:
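SPR, 30°C: Avi-biotin RAS·GDP captured via Biotin CAPture (~100–300 RU); running buffer HBS pH 7.4, 1 mM DTT, 10 mM MgCl2, 0.01% Tween 20, 10 µM GDP, 4% DMSO. Single-cycle kinetics, 100 µL/min, 75 s injections; 1:1 model → KD.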

The test system of experiment [3] is human lung cancer strain NCI-H441. In words: NCI-H441 cell proliferation inhibitory activity (CellTiter-Glo, 4 days). Type of experiment: cell-based. The note with it: NCI-H441 cells, 4 days, read-out: NCl-H441 IC50. In outline:
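Signal came from […] measured per well once the reagent was added. Beforehand, cells were cultured at 37°C and 5% carbon dioxide on a compound series serially diluted in dimethyl sulfoxide.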

Sequence of HRAS wild-type protein (P01112 whole entry): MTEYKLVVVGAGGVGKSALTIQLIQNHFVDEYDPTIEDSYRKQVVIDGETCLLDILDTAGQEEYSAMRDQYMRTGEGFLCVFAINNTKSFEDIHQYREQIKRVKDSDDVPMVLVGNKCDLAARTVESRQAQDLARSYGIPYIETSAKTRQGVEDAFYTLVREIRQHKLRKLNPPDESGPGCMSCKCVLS
Sequence of GDP-bound NRAS wild-type protein (P01111 whole entry): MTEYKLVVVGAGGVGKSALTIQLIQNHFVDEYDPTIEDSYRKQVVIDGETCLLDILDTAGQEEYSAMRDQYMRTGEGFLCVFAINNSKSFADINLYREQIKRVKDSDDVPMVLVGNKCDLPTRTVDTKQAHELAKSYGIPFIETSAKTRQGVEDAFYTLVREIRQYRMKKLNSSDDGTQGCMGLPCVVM
Sequence of GDP-bound KRAS wild-type protein (P01116 1-188 isoform P01116-2): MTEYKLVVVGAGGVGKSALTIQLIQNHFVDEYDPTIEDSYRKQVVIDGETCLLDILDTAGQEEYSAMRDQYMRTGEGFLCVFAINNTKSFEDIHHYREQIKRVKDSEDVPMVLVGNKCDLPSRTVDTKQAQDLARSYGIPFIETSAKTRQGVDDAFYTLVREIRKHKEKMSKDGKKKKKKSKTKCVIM

For the compound `C=C(C)C[C@H]1C(=O)N(C)[C@H](C(=O)N(C)C)CC(=O)N(C)[C@@H](CC(C)C)C(=O)N[C@@H]([C@@H](C)CC)C(=O)N2CCC[C@H]2C(=O)N(C)[C@H]2C/C=C\CCN(C2=O)[C@@H](Cc2ccc(C)cc2)C(=O)N(C)CC(=O)N[C@@H](CCc2cc(F)c(C(F)(F)F)c(F)c2)C(=O)N2C[C@H](OCC)C[C@H]2C(=O)N(C)C2(CCC2)C(=O)N1C` [PP3351], the “HRAS /KRAS” value at HRAS wild-type protein is “A (a compound having 10 or more and less than 20 is denoted as A)”. Moreover, the “NRAS /KRAS” value in experiment [1] is “A (a compound having 10 or more and less than 20 is denoted as A)”. Also, binding in experiment [2] was characterised by a dissociation constant (Kd) of 4.2 nM. Further, the IC50 (in general, the concentration that inhibits the measured activity by half) in experiment [3] amounted to 34.7 nM.
As for `CCCN(C)C(=O)[C@@H]1CC(=O)N(C)[C@@H](CC(C)C)C(=O)N[C@@H]([C@@H](C)CC)C(=O)N(C)CC(=O)N(C)[C@H]2C/C=C\CCN(C2=O)[C@@H](Cc2ccc(C(F)(F)F)cc2)C(=O)N(C)CC(=O)N[C@@H](CCc2cc(F)c(C(F)(F)F)c(F)c2)C(=O)N2C[C@H](OCC)C[C@H]2C(=O)N[C@]2(C[C@@H](OC)C2)C(=O)N(C)[C@@H](C2CCCC2)C(=O)N1C` [PP3352], the “HRAS /KRAS” value at HRAS wild-type protein is “B (a compound having 3 or more and less than 10 is denoted as B)”. The “NRAS /KRAS” value in experiment [1] was “A (a compound having 10 or more and less than 20 is denoted as A)”. In addition, in experiment [2], the Kd (commonly the constant that tells how readily two partners part at equilibrium) is 0.28 nM. Also, the IC50 in experiment [3] came to 12.4 nM.
On to `CCCN(C)C(=O)[C@@H]1CC(=O)N(C)[C@@H](CC(C)C)C(=O)N[C@@H]([C@@H](C)CC)C(=O)N(C)CC(=O)N(C)[C@H]2C/C=C\CCN(C2=O)[C@@H](Cc2ccc(C(F)(F)F)cc2)C(=O)N(C)CC(=O)N[C@@H](CCc2cc(F)c(C(F)(F)F)c(F)c2)C(=O)N2C[C@H](OCC)C[C@H]2C(=O)N[C@]2(C[C@H](OC)C2)C(=O)N(C)[C@@H](C2CCCC2)C(=O)N1C` [PP3353], for which the “HRAS /KRAS” value on HRAS wild-type protein was “A (a compound having 10 or more and less than 20 is denoted as A)”. Also, the “NRAS /KRAS” value in experiment [1] was “A (a compound having 10 or more and less than 20 is denoted as A)”. Moreover, binding in experiment [2] was put at a Kd of 0.17 nM. The half-maximal inhibitory concentration (IC50) in experiment [3] worked out at 14.1 nM.
As for `CCCN(C)C(=O)[C@@H]1CC(=O)N(C)[C@@H](CC(C)C)C(=O)N[C@@H]([C@@H](C)CC)C(=O)N2CCC[C@H]2C(=O)N(C)[C@H]2C/C=C\CCN(C2=O)[C@@H](Cc2ccc(C(F)(F)F)cc2)C(=O)N(C)CC(=O)N[C@@H](CCc2cc(F)c(C(F)(F)F)c(F)c2)C(=O)N2C[C@H](OCC)C[C@H]2C(=O)N[C@]2(C[C@@H](OC)C2)C(=O)N(C)[C@@H](C2CCCC2)C(=O)N1C` [PP3354], the “HRAS /KRAS” value at HRAS wild-type protein is “A (a compound having 10 or more and less than 20 is denoted as A)”. The “NRAS /KRAS” value in experiment [1] was “A (a compound having 10 or more and less than 20 is denoted as A)”. In addition, binding in experiment [2] was put at a Kd of 1.4 nM. Further, the IC50 in experiment [3] came out at 58.5 nM.
Consider `CCCN(C)C(=O)[C@@H]1CC(=O)N(C)[C@@H](CC(C)C)C(=O)N[C@@H]([C@@H](C)CC)C(=O)N2CCC[C@H]2C(=O)N(C)[C@H]2C/C=C\CCN(C2=O)[C@@H](Cc2ccc(C(F)(F)F)cc2)C(=O)N(C)CC(=O)N[C@@H](CCc2cc(F)c(C(F)(F)F)c(F)c2)C(=O)N2C[C@H](OCC)C[C@H]2C(=O)N[C@]2(C[C@H](OC)C2)C(=O)N(C)[C@@H](C2CCCC2)C(=O)N1C` [PP3355], for which the “HRAS /KRAS” value on HRAS wild-type protein was “A (a compound having 10 or more and less than 20 is denoted as A)”. In experiment [1], the “NRAS /KRAS” value is “A (a compound having 10 or more and less than 20 is denoted as A)”. This compound registered a Kd in experiment [2] of 1.1 nM. Also, the IC50 in experiment [3] came to 45.5 nM.
With `CCC[C@H]1C(=O)N[C@@H]([C@@H](C)CC)C(=O)N(C)CC(=O)N(C)[C@H]2C/C=C\CCN(C2=O)[C@@H](Cc2ccc(C(F)(F)F)cc2)C(=O)N(C)CC(=O)N[C@@H](CCc2cc(F)c(C(F)(F)F)c(F)c2)C(=O)N2CC3(CC3)C[C@H]2C(=O)N(C)C2(CCC2)C(=O)N(C)[C@@H](C(CC)CC)C(=O)N(C)[C@H](C(=O)N(C)C)CC(=O)N1C` [PP3357], the “HRAS /KRAS” value on HRAS wild-type protein was “A (a compound having 10 or more and less than 20 is denoted as A)”. Further, the “NRAS /KRAS” value in experiment [1] is “A (a compound having 10 or more and less than 20 is denoted as A)”. In experiment [2], the Kd came out at 0.82 nM. The IC50 in experiment [3] was 8.4 nM.
